Data published in ChEMBL document CHEMBL1201862, “PubChem BioAssay data set” (2004).
Several values for one entry are separate records, joined by “and”; a condition that tells them apart may be missing. Equal entries are not always repeated. Structures can show the parent of a compound that is named as a salt. Activity calls are given as the source filed them.

What was measured:
[1] = biological target: Voltage-gated inwardly rectifying potassium channel KCNH2 (Homo sapiens, UniProt Q12809); details: Potency;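 further: confirmatory quantitative high-throughput screen measuring inhibition of hERG channel activity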
Sequence of Voltage-gated inwardly rectifying potassium channel KCNH2 (Q12809 whole entry): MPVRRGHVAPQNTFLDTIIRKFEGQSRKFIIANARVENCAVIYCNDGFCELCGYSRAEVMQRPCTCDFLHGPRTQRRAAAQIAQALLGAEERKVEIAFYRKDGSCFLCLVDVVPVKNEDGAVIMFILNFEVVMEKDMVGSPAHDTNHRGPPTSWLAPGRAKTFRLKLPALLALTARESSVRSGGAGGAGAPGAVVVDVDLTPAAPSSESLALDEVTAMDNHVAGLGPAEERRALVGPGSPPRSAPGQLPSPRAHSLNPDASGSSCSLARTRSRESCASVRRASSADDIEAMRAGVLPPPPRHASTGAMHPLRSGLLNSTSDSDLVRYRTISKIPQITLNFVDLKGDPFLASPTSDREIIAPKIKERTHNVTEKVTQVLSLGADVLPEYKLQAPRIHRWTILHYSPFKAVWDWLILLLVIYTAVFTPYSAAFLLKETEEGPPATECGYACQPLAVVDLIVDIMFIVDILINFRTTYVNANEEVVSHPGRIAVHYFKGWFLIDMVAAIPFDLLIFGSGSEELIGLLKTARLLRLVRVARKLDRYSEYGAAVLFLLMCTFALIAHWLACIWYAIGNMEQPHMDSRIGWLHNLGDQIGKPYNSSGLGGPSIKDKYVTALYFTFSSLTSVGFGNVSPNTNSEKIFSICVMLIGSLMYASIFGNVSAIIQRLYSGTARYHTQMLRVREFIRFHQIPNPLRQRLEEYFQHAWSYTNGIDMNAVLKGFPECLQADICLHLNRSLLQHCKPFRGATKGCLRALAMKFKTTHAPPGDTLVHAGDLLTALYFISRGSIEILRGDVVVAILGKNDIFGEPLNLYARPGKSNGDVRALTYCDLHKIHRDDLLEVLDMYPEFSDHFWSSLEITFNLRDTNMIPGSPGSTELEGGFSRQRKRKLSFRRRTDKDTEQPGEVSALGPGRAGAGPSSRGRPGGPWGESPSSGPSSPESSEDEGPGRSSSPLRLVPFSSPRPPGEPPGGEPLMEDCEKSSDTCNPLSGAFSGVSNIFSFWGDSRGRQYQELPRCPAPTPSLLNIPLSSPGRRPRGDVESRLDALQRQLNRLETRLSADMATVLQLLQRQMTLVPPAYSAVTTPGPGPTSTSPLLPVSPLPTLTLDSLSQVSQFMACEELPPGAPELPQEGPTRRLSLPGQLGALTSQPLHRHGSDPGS

[2] = HEK-293T cell viability reduction – luminescence, B-cell screen hits, cytotoxicity control for BCR NF-kB inhibitor project, dose response (AID 489021); format: functional, cell-based;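 further: HEK-293T cells carrying an NF-kB luciferase reporter; cells exposed to compound for about 14 hours before viability readout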
INS1 = test: INS-1E survival protection against cytokine death – cell-based, luminescence, retest, dose response (AID 449756); format: functional; details: Rattus norvegicus;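 further: cell death triggered by IL-1 beta plus TNF-alpha plus IFN-gamma mixture; protective hits raise ATP signal compared with cytokine alone wells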
[3] = reduction of Shn3 3'UTR-driven luciferase in osteoblasts – cell-based, Clone20 osteoblasts, firefly luciferase, cherry-picked, dose response (AID 624132); format: functional;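 further: firefly luciferase luminescence from reporter carrying the Shn3 3'UTR in osteoblasts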
[4] = loss of viability in HepG2 cells – cell-based, CellTiter-Glo, cherry-picked, cytotoxicity control for Shn3 inhibitor project, dose response (AID 624134); format: functional
[5] = non-specific 3'UTR reporter inhibition in Clone20-Shn3RL – cell-based, Renilla luciferase, cherry-picked, counter-screen for Shn3 inhibitor project, dose response (AID 624133); format: functional
[6] = biological target: Protein-tyrosine kinase 2-beta (Homo sapiens, UniProt Q14289);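 further: potency of inhibitors of PYK2 kinase phosphorylation of poly-GT substrate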
Sequence of Protein-tyrosine kinase 2-beta (Q14289 whole entry, the tested form may be a part): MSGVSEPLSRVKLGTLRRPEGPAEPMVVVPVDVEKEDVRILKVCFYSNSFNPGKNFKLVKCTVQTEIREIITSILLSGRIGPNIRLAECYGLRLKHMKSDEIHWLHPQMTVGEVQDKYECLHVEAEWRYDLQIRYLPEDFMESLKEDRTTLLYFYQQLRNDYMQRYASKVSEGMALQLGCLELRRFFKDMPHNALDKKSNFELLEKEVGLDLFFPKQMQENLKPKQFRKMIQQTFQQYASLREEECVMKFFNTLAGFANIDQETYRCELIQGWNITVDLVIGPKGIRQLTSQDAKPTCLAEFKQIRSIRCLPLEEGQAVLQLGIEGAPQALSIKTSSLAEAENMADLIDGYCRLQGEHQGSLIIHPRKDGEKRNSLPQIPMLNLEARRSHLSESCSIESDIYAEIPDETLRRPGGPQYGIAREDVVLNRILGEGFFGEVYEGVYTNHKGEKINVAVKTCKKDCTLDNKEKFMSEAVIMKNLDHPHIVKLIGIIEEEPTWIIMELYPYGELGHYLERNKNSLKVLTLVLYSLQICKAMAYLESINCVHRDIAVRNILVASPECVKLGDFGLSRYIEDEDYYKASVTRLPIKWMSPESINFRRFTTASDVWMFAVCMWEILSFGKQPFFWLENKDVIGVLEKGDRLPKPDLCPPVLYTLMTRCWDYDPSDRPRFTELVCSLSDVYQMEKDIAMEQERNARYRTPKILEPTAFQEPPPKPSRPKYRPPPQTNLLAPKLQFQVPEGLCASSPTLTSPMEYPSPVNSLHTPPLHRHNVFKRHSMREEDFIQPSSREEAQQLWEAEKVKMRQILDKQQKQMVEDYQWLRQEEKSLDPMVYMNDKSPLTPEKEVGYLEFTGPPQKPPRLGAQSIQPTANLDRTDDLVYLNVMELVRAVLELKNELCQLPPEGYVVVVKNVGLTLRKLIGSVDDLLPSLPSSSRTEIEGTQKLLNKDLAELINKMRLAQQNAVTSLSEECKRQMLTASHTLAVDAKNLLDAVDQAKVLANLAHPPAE

[7] = blockers of HIV-1 ZM109 envelope-driven cell-cell fusion – HeLa effector, CEM target cells, luciferase, cherry-pick, dose response (AID 652058); format: functional, cell-based;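 further: luciferase signal from HIV-1 Env mediated cell-cell fusion of effector and target cells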
[8] = HIV-1 AD8 envelope cell-cell fusion blockers – cherry-pick, dose response (AID 652062); format: functional, cell-based;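 further: luciferase signal from cell-cell fusion driven by HIV-1 clade B AD8 Env; potency is for inhibitors of fusion seen as a drop in luminescence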
HEK293 = test: EBV LMP1 TES2 canonical NF-kB signalling blockers – cell-based, HEK293, luciferase, cherry-pick, dose response (AID 588343); format: functional; details: Homo sapiens
[9] = intracellular Trypanosoma cruzi inhibitors in host cells – cell-based, plate reader, cherry-pick samples, set 3, dose response (AID 651818); format: functional;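 further: compounds incubated with infected cells for about four days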
cells [10] = format: functional, cell-based
[11] = Trypanosoma cruzi growth suppression in host cells – NIH3T3 host cells, beta-gal luminescence, confirmation (AID 2044); format: functional, cell-based;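 further: intracellular parasites grown in NIH/3T3 mouse fibroblasts as host cells; luminescent beta-galactosidase reporter signal from transgenic T. cruzi replicating inside host cells; inhibitors lower the luminescence signal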
cells [12] = format: functional, cell-based; remark: listed apart in the source
[13] = NIH3T3 cell viability loss – ATP luminescence, mouse fibroblasts, counter-screen, dose response (AID 2010); format: functional, cell-based;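 further: cells exposed to compound for about 90 hours before reading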
Nonstructural protein 1 = Nonstructural protein 1 (Influenza A virus, UniProt Q194T2); format: functional, Influenza A virus (A/California/07/2009(H1N1))
Sequence of Nonstructural protein 1 (Q194T2 whole entry): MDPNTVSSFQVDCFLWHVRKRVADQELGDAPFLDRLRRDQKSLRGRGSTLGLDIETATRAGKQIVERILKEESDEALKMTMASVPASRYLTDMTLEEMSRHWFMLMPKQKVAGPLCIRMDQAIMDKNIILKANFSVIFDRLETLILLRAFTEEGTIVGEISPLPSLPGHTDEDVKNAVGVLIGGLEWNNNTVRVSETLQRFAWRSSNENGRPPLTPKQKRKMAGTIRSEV

[14] = biological target: T1, Microphthalmia-associated transcription factor (Homo sapiens, UniProt O75030); test: reducers of TRPM1 reporter luminescence, concentration series – cell-based, SK-MEL-5, cherry-picked, set 3, MITF inhibitor project, dose response (AID 493073); format: functional;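 further: SK-MEL-5 melanoma cells with luciferase driven by the MITF target TRPM1 promoter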
T1 sequence (O75030 whole entry): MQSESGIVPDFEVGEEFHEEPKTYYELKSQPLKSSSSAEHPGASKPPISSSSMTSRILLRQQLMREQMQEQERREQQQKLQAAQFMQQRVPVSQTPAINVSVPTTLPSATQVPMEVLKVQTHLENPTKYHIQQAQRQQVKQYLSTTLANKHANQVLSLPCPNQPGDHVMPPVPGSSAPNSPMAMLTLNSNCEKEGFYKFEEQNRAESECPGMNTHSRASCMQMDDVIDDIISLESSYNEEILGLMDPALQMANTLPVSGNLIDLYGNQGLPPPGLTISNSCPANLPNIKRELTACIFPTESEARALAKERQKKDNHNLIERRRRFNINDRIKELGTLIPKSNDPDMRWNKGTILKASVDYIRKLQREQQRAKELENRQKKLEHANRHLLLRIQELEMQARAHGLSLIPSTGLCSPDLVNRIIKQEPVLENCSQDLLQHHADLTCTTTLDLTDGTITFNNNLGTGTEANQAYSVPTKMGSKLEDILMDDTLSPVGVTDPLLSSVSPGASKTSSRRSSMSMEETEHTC

H9c2 = test: cells; format: functional, cell-based; details: Rattus norvegicus, H9c2, Myocardium;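 further: confirmatory concentration-response retest of ultra-high-throughput screening hits for modulation of myocardial damage; cell death induced by hydrogen peroxide oxidative stress; compound pretreatment for 60 min then peroxide exposure for 2 h; potency is for protecting the cells against peroxide damage rather than for killing them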
[15] = M. tuberculosis H37Rv growth inhibitors, H37Rv strain (AID 1626); format: functional
[16] = biological target: FAD-linked sulfhydryl oxidase ALR (Homo sapiens, UniProt P55789); test: ALR-catalysed DTT oxidation blockers – biochemical, H2O2 detection, luminescence, cherry-pick, dose response (AID 493248)
Sequence of FAD-linked sulfhydryl oxidase ALR (P55789 whole entry): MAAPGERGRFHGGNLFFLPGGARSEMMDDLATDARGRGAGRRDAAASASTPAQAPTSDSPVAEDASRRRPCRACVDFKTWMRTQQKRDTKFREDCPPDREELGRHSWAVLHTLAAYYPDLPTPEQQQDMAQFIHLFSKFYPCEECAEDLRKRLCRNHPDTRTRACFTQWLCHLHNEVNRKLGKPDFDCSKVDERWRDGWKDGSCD

Paired box protein Pax-8 = Paired box protein Pax-8 (Homo sapiens, UniProt Q06710); test: PAX8 transcriptional activity inhibition in RMG-I – RMG-I cells, luciferase, cherry-pick, dose response (AID 687027); format: functional, cell-based;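 further: luciferase reporter driven by Pax8 target thyroperoxidase promoter measured by SteadyGlo luminescence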
Sequence of Paired box protein Pax-8 (Q06710 whole entry): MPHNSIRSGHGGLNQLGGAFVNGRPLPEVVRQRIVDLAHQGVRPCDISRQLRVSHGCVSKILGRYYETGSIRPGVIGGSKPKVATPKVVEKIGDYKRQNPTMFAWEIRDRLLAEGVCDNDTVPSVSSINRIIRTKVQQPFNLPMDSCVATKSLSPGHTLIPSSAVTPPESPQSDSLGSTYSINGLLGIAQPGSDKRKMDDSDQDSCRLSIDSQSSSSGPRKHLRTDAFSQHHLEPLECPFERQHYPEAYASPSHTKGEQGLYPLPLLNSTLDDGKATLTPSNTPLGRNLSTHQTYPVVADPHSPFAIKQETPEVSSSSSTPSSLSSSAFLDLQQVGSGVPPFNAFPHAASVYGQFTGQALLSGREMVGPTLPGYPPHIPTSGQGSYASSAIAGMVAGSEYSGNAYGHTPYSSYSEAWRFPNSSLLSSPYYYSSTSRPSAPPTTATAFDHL

[17] = biological target: T2, Ubiquitin-conjugating enzyme E2 N (Homo sapiens, UniProt P61088); format: functional;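 further: Dose-response confirmation in a TR-FRET assay detecting UBC13-driven polyubiquitin chain formation, inhibition measured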
T2 sequence (P61088 whole entry): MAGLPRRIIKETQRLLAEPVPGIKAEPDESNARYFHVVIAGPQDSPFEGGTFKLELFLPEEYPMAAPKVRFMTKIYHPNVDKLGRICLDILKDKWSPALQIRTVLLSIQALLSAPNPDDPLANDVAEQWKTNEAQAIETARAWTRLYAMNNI

Cytochrome P450 3A4 = Cytochrome P450 3A4 (Homo sapiens, UniProt P08684);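 further: CYP3A4 tested as one member of a cytochrome P450 panel screen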
Sequence of Cytochrome P450 3A4 (P08684 whole entry): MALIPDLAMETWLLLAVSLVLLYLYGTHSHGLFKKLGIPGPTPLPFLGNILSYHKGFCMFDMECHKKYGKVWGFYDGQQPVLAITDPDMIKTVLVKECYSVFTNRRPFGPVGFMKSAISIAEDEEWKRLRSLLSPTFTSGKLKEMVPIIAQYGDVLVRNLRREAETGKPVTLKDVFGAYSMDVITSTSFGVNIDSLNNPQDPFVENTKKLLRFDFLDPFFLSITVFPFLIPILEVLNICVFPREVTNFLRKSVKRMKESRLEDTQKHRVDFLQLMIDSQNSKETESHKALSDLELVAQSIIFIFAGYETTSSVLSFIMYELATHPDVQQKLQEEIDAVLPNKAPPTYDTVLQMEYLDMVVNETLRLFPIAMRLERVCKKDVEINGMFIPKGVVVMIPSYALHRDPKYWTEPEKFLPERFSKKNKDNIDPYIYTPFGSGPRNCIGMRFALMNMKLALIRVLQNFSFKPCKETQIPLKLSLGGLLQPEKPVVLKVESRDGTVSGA

Cytochrome P450 2C9 [18] = biological target: T3, Cytochrome P450 2C9 (Homo sapiens, UniProt P11712)
T3 sequence (P11712 whole entry): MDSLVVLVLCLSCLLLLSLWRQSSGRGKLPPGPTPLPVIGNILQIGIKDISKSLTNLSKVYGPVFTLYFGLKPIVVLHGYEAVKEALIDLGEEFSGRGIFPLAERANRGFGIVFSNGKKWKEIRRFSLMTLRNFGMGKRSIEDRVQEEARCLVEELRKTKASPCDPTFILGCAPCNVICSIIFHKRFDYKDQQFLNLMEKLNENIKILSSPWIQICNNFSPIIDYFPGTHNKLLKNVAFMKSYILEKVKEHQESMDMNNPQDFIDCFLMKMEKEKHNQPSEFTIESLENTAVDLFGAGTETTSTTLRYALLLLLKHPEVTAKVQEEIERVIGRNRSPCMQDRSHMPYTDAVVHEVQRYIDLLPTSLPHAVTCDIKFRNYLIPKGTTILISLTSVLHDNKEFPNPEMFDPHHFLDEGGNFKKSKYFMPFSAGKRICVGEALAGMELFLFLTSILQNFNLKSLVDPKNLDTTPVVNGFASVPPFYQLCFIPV

Cytochrome P450 2C9 [19] = biological target: T3, Cytochrome P450 2C9; remark: listed apart in the source
Large T antigen = Large T antigen (Simian virus 40, UniProt P03070); format: functional, Betapolyomavirus macacae;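 further: Confirmatory-stage PubChem screen for compounds that inhibit SV40 T antigen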
[20] = biological target: T4, Heat shock factor protein 1 (Mus musculus, UniProt P38532); test: decrease of HSF1-responsive luciferase luminescence – cell-based, NIH3T3, dose retest, confirmation (AID 2382); format: functional;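 further: NIH3T3 fibroblasts with HSF1-driven luciferase reporter stressed by proteasome inhibitor MG132; luminescence from HSF1-driven luciferase expression after 8 hours of MG132 stress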
T4 sequence (P38532 whole entry): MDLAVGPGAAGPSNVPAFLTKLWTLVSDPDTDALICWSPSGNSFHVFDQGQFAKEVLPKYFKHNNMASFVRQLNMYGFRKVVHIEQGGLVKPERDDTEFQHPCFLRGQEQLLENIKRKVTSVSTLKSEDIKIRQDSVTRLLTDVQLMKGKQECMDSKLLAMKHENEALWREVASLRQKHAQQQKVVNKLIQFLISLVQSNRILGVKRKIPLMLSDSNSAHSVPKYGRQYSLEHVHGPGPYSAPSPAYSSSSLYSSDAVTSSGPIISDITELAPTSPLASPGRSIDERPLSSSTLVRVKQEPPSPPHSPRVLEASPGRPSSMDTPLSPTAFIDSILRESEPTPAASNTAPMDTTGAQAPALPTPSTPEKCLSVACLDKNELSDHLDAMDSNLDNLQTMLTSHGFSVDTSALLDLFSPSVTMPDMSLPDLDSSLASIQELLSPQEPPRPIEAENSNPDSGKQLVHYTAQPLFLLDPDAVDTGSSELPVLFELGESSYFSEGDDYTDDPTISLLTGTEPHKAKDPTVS

[21] = Luminescence Cell-Based Dose Retest to Confirm Inhibitors of Cancer Stem Cells. [Related pubchem assays (depositor defined):AID2717, AID2721]; format: functional; details: Homo sapiens
[22] = biological target: Glucose-6-phosphate 1-dehydrogenase (Homo sapiens, UniProt P11413); test: inhibition of Homo sapiens G6PD, dose series – biochemical, fluorescence, selectivity assay for P. falciparum G6PD inhibitor project, dose response (AID 504792); format: functional
Sequence of Glucose-6-phosphate 1-dehydrogenase (P11413 whole entry): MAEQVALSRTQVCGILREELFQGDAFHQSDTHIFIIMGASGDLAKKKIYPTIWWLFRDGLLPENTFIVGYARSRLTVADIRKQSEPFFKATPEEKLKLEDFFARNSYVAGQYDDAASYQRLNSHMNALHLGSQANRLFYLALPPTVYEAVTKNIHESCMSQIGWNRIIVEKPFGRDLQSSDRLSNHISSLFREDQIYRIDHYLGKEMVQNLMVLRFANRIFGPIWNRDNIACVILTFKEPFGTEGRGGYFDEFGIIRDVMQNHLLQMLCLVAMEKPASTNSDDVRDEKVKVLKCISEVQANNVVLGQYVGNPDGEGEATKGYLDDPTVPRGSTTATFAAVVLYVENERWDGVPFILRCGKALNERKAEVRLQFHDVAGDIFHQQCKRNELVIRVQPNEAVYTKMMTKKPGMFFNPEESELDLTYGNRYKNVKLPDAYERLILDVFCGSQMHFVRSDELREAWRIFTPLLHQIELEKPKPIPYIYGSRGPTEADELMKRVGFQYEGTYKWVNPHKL

[23] = biological target: T4, Heat shock factor protein 1; test: enhancement of HSF1-driven luciferase signal – cell-based, NIH3T3, luminescence, dose retest, confirmation (AID 435004); format: functional;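 further: stress induced by proteasome inhibitor MG132 added 30 min after compound; luciferase reporter driven by HSF1 response element in NIH3T3 cells; actives raise luminescence as potentiators of the MG132 stress response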
[24] = viability loss in THP-1 monocytes – THP-1 cells, cytotoxicity control for Vif-APOBEC3G degradation inhibitor project, dose response (AID 1117359); format: functional; details: THP-1
[25] = viability of uninfected HEp-2 cells – cell-based, HTS, cytotoxicity control for RSV inhibitor project, dose response (AID 2410); format: functional; details: human respiratory syncytial virus
[26] = biological target: Heat shock protein HSP 90-alpha (Homo sapiens, UniProt P07900); format: functional, organism-based
[27] = viability of PTEN-deleted HCT116 cells – cell-based, HCT116 PTEN knockout, dose response (AID 1047); format: functional;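 further: HCT116 colon tumor cells with PTEN knocked out; cells exposed to compound for 60 hours before readout; potency for loss of cell viability measured by luminescence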
[28] = viability of HCT116 lacking mutant beta-catenin – cell-based, human colon tumor, dose response (AID 1045); format: functional;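 further: HCT116 colon tumor cells with beta catenin knocked out; cells exposed to compound for 60 hours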

SMILES: CC1CCN(CC[C@H]2CCCN2S(=O)(=O)c2cccc(O)c2)CC1
- AC50 [1]: 22.4 µM (inconclusive)

SMILES: CC(=O)c1cn(CCOc2cc(C)ccc2C)c2ccccc12
- IC50 [2]: > 80 µM (inactive)
- AC50 (INS1): 3.62 µM (active)
- AC50 [3]: 1.18 µM (active)
- AC50 [4]: 2.19 µM (active)
- AC50 [5]: 2.03 µM (active)

SMILES: COc1nnc(-c2ccc(N3CCCCC3)c(NC(C)=O)c2)c2ccccc12
- IC50 [6]: > 69.5 µM (not active)

SMILES: O=C(C[C@H]1C[C@H]2c3cc(NC(=O)NC4CCCC4)ccc3O[C@H]2[C@@H](CO)O1)NC1CCCCC1
- AC50 [7]: 24.5 µM (active)
- AC50 [8]: 1.17 µM (active)

SMILES: Oc1ccc(C=NNC(=S)Nc2ccccc2)nc1
- AC50 (HEK293): 14.6 µM (active)

SMILES: COc1cc(C2Nc3ccc4ncccc4c3C3=C2C(=O)CC(C)(C)C3)cc(OC)c1O (stereo not drawn)
- IC50 [6]: 16.4 µM (not active)

SMILES: C[C@H]1CN([C@@H](C)CO)C(=O)Cc2cc(NC(=O)Nc3cccc4ccccc34)ccc2O[C@H]1CN(C)Cc1ccc(C(F)(F)F)cc1
- AC50 [9]: 5.49 µM (active)

SMILES: O=C(Nc1nc(-c2ccccn2)cs1)c1ccccc1-n1cnnn1
- EC50 (cells [10]): 10.6 µM (active)
- EC50 [11]: 1.93 µM (active)
- EC50 (cells [12]): 64.3 µM (active)
- EC50 [13]: 4.31 µM (active)
- IC50 (Nonstructural protein 1): 5.44 µM (active)
- AC50 [14]: 6.96 µM (active)
- AC50 (INS1): 1.3 µM (active)
- IC50 (H9c2): > 79 µM (inactive)
- AC50 [3]: 1.71 µM (active)
- AC50 [4]: 5.46 µM (active)
- AC50 [5]: 2.75 µM (active)

SMILES: COC(=O)c1ccc(NC(=O)CSC2=NCCN2)cc1
- IC50 [15]: > 100 µM (active)

SMILES: CNC(=O)c1cc(Nc2nnc(-c3ccc(O)cc3)c3ccccc23)ccc1OC
- AC50 [16]: 3.86 µM (active)
- IC50 [2]: > 80 µM (inactive)

SMILES: N#Cc1ccccc1COc1ccc(/C=C/C(=O)O)cc1
- IC50 [2]: > 80 µM (inactive)

SMILES: O=C(Nc1cccc(Br)c1)c1ccc2c(c1)SC1=NS(=O)(=O)CCN12
- IC50 [2]: > 80 µM (inactive)
- AC50 (Paired box protein Pax-8): 3.32 µM (active)

SMILES: COc1cc(-c2nc3ccc(N4CCN(C)CC4)cc3[nH]2)cc(OC)c1OC
- IC50 [17]: > 20 µM (inactive)
- IC50 [2]: > 80 µM (inactive)

SMILES: COc1ccc(NC(=O)Nc2ccc3c(c2)CC(=O)N([C@@H](C)CO)C[C@H](C)[C@@H](CN(C)Cc2ccc(C(=O)Nc4ccccc4N)cc2)O3)cc1
- AC50 [9]: 3.65 µM (active)

SMILES: NCCc1ccc(S(=O)(=O)F)cc1 [4-AMINOETHYLBENZENESULFONYL FLUORIDE HYDROCHLORIDE]
- AC50 [1]: 0.251 µM (inconclusive)

SMILES: COc1[nH]c2ccc(F)cc2c1C(=O)OCC1CCN(CCNS(C)(=O)=O)CC1.NS(=O)(=O)O
- AC50 (Cytochrome P450 3A4): 12.6 µM (inconclusive) and 31.6 µM (inconclusive)
- AC50 (Cytochrome P450 2C9 [18]): 39.8 µM (inconclusive)
- AC50 [1]: 35.5 µM (inconclusive)
- AC50 (Cytochrome P450 2C9 [19]): inconclusive

SMILES: Cc1cc2cc3c(N)[nH]nc3nc2cc1C
- IC50 (Large T antigen): 30.3 µM (active)
- IC50 [6]: > 69.5 µM (not active)

SMILES: OCCN(CCO)CC(O)COc1ccc(C23CC4CC(CC(C4)C2)C3)cc1 (stereo not drawn)
- EC50 [20]: 3.11 µM (active)
- AC50 [21]: 1.05 µM (active)
- AC50 (HEK293): 7.62 µM (active)

SMILES: C=CCN1CCc2cccc3c2[C@H]1Cc1ccc(O)c(O)c1-3
- IC50 [22]: > 80 µM (inactive)
- EC50 [23]: > 260 µM (inactive)
- CC50 [24]: > 40 µM (active)
- AC50 [1]: 11.2 µM (inconclusive)

SMILES: C[C@@H]1CN([C@H](C)CO)C(=O)Cc2cc(NC(=O)C3CCCCC3)ccc2O[C@@H]1CN(C)Cc1ccc(C(=O)Nc2ccccc2N)cc1
- AC50 [9]: 3.51 µM (active)

SMILES: O=C1CCNc2ccc(-c3ccccc3)cc21
- IC50 [15]: > 100 µM (active)

SMILES: Cc1cc(NC(=O)CCCN2C(=O)/C(=C/c3ccccc3Cl)SC2=S)no1
- IC50 [2]: > 80 µM (inactive)

SMILES: C[C@@H]1CCCCO[C@H](CN(C)C(=O)Nc2ccc(C(F)(F)F)cc2)[C@@H](C)CN([C@H](C)CO)C(=O)c2cc(NC(=O)Nc3ccccc3)ccc2O1
- AC50 [9]: 2.02 µM (active)

SMILES: C[C@@H]1CN([C@H](C)CO)C(=O)Cc2cc(NC(=O)Nc3ccc(C(F)(F)F)cc3)ccc2O[C@@H]1CN(C)Cc1ccc(C(=O)Nc2ccccc2N)cc1
- AC50 [9]: 2.41 µM (active)

SMILES: CC1CCCCC1NC(=O)/C(C#N)=C/c1ccccc1F (stereo not drawn)
- CC50 [25]: 21.3 µM (active)
- AC50 [21]: 5.53 µM (active)
- AC50 [14]: 14.4 µM (active)
- AC50 [26]: 0.94 µM (active)

SMILES: COc1cc(/C=C(\C#N)C(=O)NC2CCCCC2C)ccc1OS(=O)(=O)c1ccc(C)cc1 (stereo not drawn)
- IC50 [15]: > 100 µM (active)
- EC50 [27]: 10.7 µM (active)
- EC50 [28]: 9.24 µM (active)
- AC50 [21]: 5.32 µM (active)
- EC50 [23]: 2.17 µM (active)

SMILES: O=NN(CCO)CCO [N-NITROSODOETHANOLAMINE]
- AC50 [1]: 3.16 µM (inconclusive)

SMILES: O=C(Oc1ccccc1)c1ccccc1O [PHENYL SALICYLATE]
- AC50 [1]: 50.1 µM (inconclusive)

SMILES: CCOc1ccc(N2C(=O)c3ccccc3C2=O)cc1
- IC50 [15]: > 100 µM (active)
